System: NPAT and RNA polymerase II at Site II
Experiment: ChIP-qPCR with NPAT or RNA Pol II antibodies at Site II in synchronized MEFs
Format: cell-based, mouse
Details: 6.30 hours post-release
Procedure: FIG. 3B-3F are graphs showing histone RNA (relative to actin) in wildtype (WT) and Y40A mutant yeast cells treated with α-factor for 3 hours, washed and harvested at indicated time points post-release. Total RNA was prepared followed by qRT-PCR for histones transcripts. FACS analysis of yeast cells was performed to determine exit of cells from […] (0 minutes) and entry into cell cycle. Data are representative of three independent experiments. The p values for 30 minutes are as follows: #p=0.024; ##p=0.008; ###p=0.0083; ####p=0.037. FIG. 3G to 3H are graphs showing ChIP (% input DNA) in synchronized MEFs treated with WEE1 inhibitor or untreated and harvested 6.30 hours post-release. ChIP was performed using NPAT and IgG antibodies (FIG. 3G) or RNA Pol II and IgG (FIG. 3H) followed by qPCR using primers corresponding to Site II. *p=0.0018, **p=0.01. FIG. 3I is an immunoblot showing total histones prepared from synchronized WT (first three columns) and Y40A mutant yeast cells (last three columns) 0, 20, and 30 minutes post release that were immunoprecipitated with pTyr37-H2B antibodies and immunoblotted with yeast H2B antibodies (upper panel) or yeast tubulin antibodies (bottom panel). […]
To understand the potential mechanism of repression of histone transcription the role of NPAT was assessed. […]

recruitment of NPAT at Site II: binding was detected
recruitment of RNA polymerase II at Site II: binding was detected
SMILES: C=CCn1c(=O)c2cnc(Nc3ccc(N4CCN(C)CC4)cc3)nc2n1-c1cccc(C(C)(C)O)n1 [MK-1775]

Reference: US9594084B2, “Phosphorylation of histones and uses thereof” (H. LEE MOFFITT CANCER CENTER AND RESEARCH INSTITUTE, priority 2012, dated 2017)
